From article PMC10100771, “A Novel CMY Variant Confers Transferable High-Level Resistance to Ceftazidime-Avibactam in Multidrug-Resistant Escherichia coli” (Microbiology Spectrum, 2023)
Values after ≈ are worked out from the molar mass of the structure shown.

Experiments:
[1] = test system: E. coli DH5α-pCR2.1; assay: MIC by agar dilution, DH5α with blank vector pCR2.1; assay type: cell-based; conditions: Escherichia coli
Experimental: (§1) Antimicrobial susceptibility testing was performed and interpreted according to the Clinical and Laboratory Standards Institute (CLSI) guidelines and breakpoints (M100, 31st edition) by the agar dilution method. E. coli ATCC 25922 and K. pneumoniae ATCC 700603 served as control strains.
(§2) The antibiotics we used included meropenem (Hanhui Pharmaceutical Co., Ltd., China), imipenem (Merck Sharp & Dohme Corp., USA), cefepime (Jiangsu Hengrui Pharmaceutical Co., Ltd., China), piperacillin (Suzhou Erye Pharmaceutical Co., Ltd., China), ceftazidime (Guangdong Jincheng Jinsu Pharmaceutical Co., Ltd., China), tazobactam (Meilunbio, China), avibactam (MedChemExpress, USA), aztreonam (Sigma-Aldrich, USA), amikacin (Meilunbio), cefuroxime (Esseti Farmaceutici S.r.l., Italy), fosfomycin (Harbin Pharmaceutical Group Co., Ltd. China), levofloxacin (Daiichi Sankyo Company Limited, Beijing, China), and cefotaxime (North China Pharmaceutical Hebei Huamin Pharmaceutical Co., Ltd., China).
(§3) The blaCMY cloning was performed using a TA cloning kit (Invitrogen, Shanghai, China). The blaCMY-178 gene combined with its predicted promoter was amplified from isolate AR13438. Then, the blaCMY-178 gene was cloned into the linearized vector pCR2.1 using T4 DNA ligase (Invitrogen). The blaCMY-172 gene was cloned from KPCZA02 with the same method. The resulting plasmids were chemically transformed into E. coli DH5α. The positive transformants were identified by blue-white screening in MH agar containing 50 μg/mL kanamycin and were further confirmed by Sanger sequencing. The pCR2.1 blank vector was also transformed into E. coli DH5α as a control. The primers used for cloning were CMY-F and CMY-R (see Table S2 in the supplemental material). Relative CMY expression was measured by reverse transcription-quantitative PCR as described previously ([34]). Specific quantitative PCR (qPCR) primers (q-recA-F/R and q-CMY-F/R) were designed (Table S2).

[2] = test system: K. pneumoniae isolate KPCZA02; assay: microbe, parasite or virus in culture; assay type: cell-based; conditions: Klebsiella pneumoniae
Experimental: as §1

[3] = test system: E. coli strain AR13438; assay: MIC by agar dilution, clinical isolate AR13438; assay type: cell-based, Escherichia coli; conditions: for MIC: Escherichia coli, AR13438, clinical E. coli isolate (blaCMY-178, blaTEM-1, blaCTX-M-27), agar dilution; for Antimicrobial susceptibility category: AR13438, CLSI breakpoints (M100, 31st edition)
Experimental: as §1, §2

[4] = test system: E. coli DH5α-pCR2.1-CMY-178; assay: MIC by agar dilution, transformant containing blaCMY-178; assay type: cell-based, Escherichia coli; conditions: for MIC: Escherichia coli, E. coli DH5α-pCR2.1-CMY-178, agar dilution; for Increase of MIC by blaCMY-178 compared with blaCMY-172: transformants in E. coli DH5α
Experimental: as §1, §2, §3

[5] = test system: E. coli DH5α; assay: MIC by agar dilution, E. coli DH5α; assay type: cell-based; conditions: Escherichia coli
Experimental: as §1, §2

[6] = test system: E. coli J53; assay: MIC by agar dilution, recipient E. coli J53; assay type: cell-based; conditions: Escherichia coli
Experimental: as §1, §2
(§4) Conjugation experiments were performed by filter mating using sodium-azide-resistant E. coli J53 as the recipient, as described previously. Transconjugants were selected with MH agar containing 100 μg/mL sodium azide and 4 μg/mL ceftazidime-avibactam; furthermore, transconjugants were named J53-AR13438 and J53-KPCZA02, respectively. We compared genomes of AR13438 and J53 to select a unique gene (gtrA) to J53. The blaCMY-178-postive transconjugants were confirmed by PCR and MALDI-TOF MS (see Fig. S9 in the supplemental material). The primers used for PCR were gtrA-F, gtrA-R, CMY-F, and CMY-R (Table S1). The transfer frequencies were calculated as the number of transconjugants (CFU/mL) divided by the number of recipients (CFU/mL). Donors and recipients were mixed at 1:1 for the transfer frequency experiment. S1-PFGE and Southern blotting were performed to define the location of blaCMY-178 and confirm the transmission of the plasmid as described previously ([35]). The MIC profiles of transconjugants were also determined by the agar dilution method.

[7] = test system: E. coli J53-AR13438; assay: MIC by agar dilution, conjugant containing pAR13438_2; assay type: cell-based; conditions: Escherichia coli, J53AR13438, E. coli J53-AR13438 (blaCMY-178)
Experimental: as §1
as §4, with “The blaCMY-178-postive transconjugants were confirmed by PCR and MALDI-TOF MS (see Fig. S9 in the supplemental material).” left out

[8] = test system: E. coli DH5α-pCR2.1-CMY-172; assay: MIC by agar dilution, transformant containing blaCMY-172; assay type: cell-based; conditions: Escherichia coli
Experimental: as §1, §2, §3

[9] = test system: E. coli J53-KPCZA02; assay: MIC by agar dilution, conjugant containing pKPCZA02_4; assay type: cell-based; conditions: Escherichia coli, J53KPCZA02, E. coli J53-KPCZA02 (blaCMY-172)
Experimental: as §1
as §4, with “The blaCMY-178-postive transconjugants were confirmed by PCR and MALDI-TOF MS (see Fig. S9 in the supplemental material).” left out

[10] = test system: E. coli DH5α-pCR2.1-CMY-2; assay: MIC by agar dilution, transformant containing blaCMY-2; assay type: cell-based; conditions: Escherichia coli

| SMILES | MIC [1] [µg/mL] | MIC [2] [µg/mL] | MIC [3] [µg/mL] | MIC [4] [µg/mL] | MIC [5] [µg/mL] | MIC [6] [µg/mL] | MIC [7] [µg/mL] | MIC [8] [µg/mL] | MIC [9] [µg/mL] | MIC [10] [µg/mL] | Increase of MIC by blaCMY-178 compared with blaCMY-172 [4] | Antimicrobial susceptibility category [3] |
| --- | --- | --- | --- | --- | --- | --- | --- | --- | --- | --- | --- | --- |
| C[C@@H](O)[C@H]1C(=O)N2C(C(=O)O)=C(S[C@@H]3CN[C@H](C(=O)N(C)C)C3)[C@H](C)[C@H]12 [MEM, meropenem] | 0.03 (≈ 0.0782 µM) | 128 (≈ 334 µM) | 0.125 (≈ 0.326 µM) | 0.06 (≈ 0.156 µM) | 0.03 (≈ 0.0782 µM) | 0.03 (≈ 0.0782 µM) | 0.06 (≈ 0.156 µM) | 0.06 (≈ 0.156 µM) | 0.06 (≈ 0.156 µM) | – | – | – |
| C[C@@H]1O[C@@H]1P(=O)(O)O [FOS, fosfomycin] | 0.25 (≈ 1.81 µM) | > 1020 | 1 (≈ 7.24 µM) | – | 0.25 (≈ 1.81 µM) | 0.5 (≈ 3.62 µM) | 0.5 (≈ 3.62 µM) | – | 0.5 (≈ 3.62 µM) | – | – | – |
| CO/N=C(\C(=O)N[C@@H]1C(=O)N2C(C(=O)O)=C(COC(N)=O)CS[C@H]12)c1ccco1 [CXM, cefuroxime] | 4 (≈ 9.43 µM) | > 1020 | > 1020 | 1020 (≈ 2410 µM) | 4 (≈ 9.43 µM) | 16 (≈ 37.7 µM) | 256 (≈ 603 µM) | 64 (≈ 151 µM) | 256 (≈ 603 µM) | 128 (≈ 302 µM) | over 4 fold | – |
| CC(C)(O/N=C(\C(=O)N[C@@H]1C(=O)N2C(C(=O)[O-])=C(C[N+]3(CCNC(=O)c4ccc(O)c(O)c4Cl)CCCC3)CS[C@H]12)c1csc(N)n1)C(=O)O [CFDC, cefiderocol] | < 0.03 | 1 (≈ 1.33 µM) | 0.25 (≈ 0.332 µM) | 1 (≈ 1.33 µM) | < 0.03 | – | – | 1 (≈ 1.33 µM) | – | 0.125 (≈ 0.166 µM) | – | susceptible |
| CO/N=C(\C(=O)N[C@@H]1C(=O)N2C(C(=O)O)=C(COC(C)=O)CS[C@H]12)c1csc(N)n1 [CTX, cefotaxime] | 0.06 (≈ 0.132 µM) | > 128 | > 128 | 128 (≈ 281 µM) | 0.03 (≈ 0.0659 µM) | 0.06 (≈ 0.132 µM) | 32 (≈ 70.3 µM) | 32 (≈ 70.3 µM) | 16 (≈ 35.1 µM) | 32 (≈ 70.3 µM) | 4 fold | – |
| C[C@@H](O)[C@H]1C(=O)N2C(C(=O)O)=C(SCCN=CN)C[C@H]12 [IMP, imipenem] | – | 64 (≈ 214 µM) | 1 (≈ 3.34 µM) | – | 0.25 (≈ 0.835 µM) | 0.5 (≈ 1.67 µM) | 0.5 (≈ 1.67 µM) | – | 0.5 (≈ 1.67 µM) | – | – | – |
| C[C@H]1COc2c(N3CCN(C)CC3)c(F)cc3c(=O)c(C(=O)O)cn1c23 [LEV, levofloxacin] | 0.03 (≈ 0.083 µM) | 32 (≈ 88.6 µM) | 32 (≈ 88.6 µM) | 0.06 (≈ 0.166 µM) | 0.03 (≈ 0.083 µM) | 0.03 (≈ 0.083 µM) | 0.03 (≈ 0.083 µM) | – | 0.03 (≈ 0.083 µM) | 0.06 (≈ 0.166 µM) | – | resistant |
| CCN1CCN(C(=O)N[C@@H](C(=O)N[C@@H]2C(=O)N3[C@@H]2SC(C)(C)[C@@H]3C(=O)O)c2ccccc2)C(=O)C1=O [PIP, piperacillin] | 1 (≈ 1.93 µM) | > 256 | > 256 | 256 (≈ 495 µM) | 1 (≈ 1.93 µM) | 4 (≈ 7.73 µM) | 64 (≈ 124 µM) | 256 (≈ 495 µM) | 64 (≈ 124 µM) | 256 (≈ 495 µM) | – | – |
| CO/N=C(\C(=O)N[C@@H]1C(=O)N2C(C(=O)[O-])=C(C[N+]3(C)CCCC3)CS[C@H]12)c1csc(N)n1 [FEP, cefepime] | 0.12 (≈ 0.25 µM) | > 128 | 128 (≈ 266 µM) | 64 (≈ 133 µM) | 0.06 (≈ 0.125 µM) | 0.06 (≈ 0.125 µM) | 32 (≈ 66.6 µM) | 16 (≈ 33.3 µM) | 32 (≈ 66.6 µM) | 2 (≈ 4.16 µM) | 4 fold | – |
| C[C@H]1[C@H](NC(=O)/C(=N\OC(C)(C)C(=O)O)c2csc(N)n2)C(=O)N1S(=O)(=O)O [ATM, aztreonam] | 0.12 (≈ 0.276 µM) | – | 32 (≈ 73.5 µM) | 32 (≈ 73.5 µM) | 0.06 (≈ 0.138 µM) | 0.12 (≈ 0.276 µM) | 32 (≈ 73.5 µM) | 8 (≈ 18.4 µM) | – | 32 (≈ 73.5 µM) | 4 fold | – |
| NCC[C@H](O)C(=O)N[C@@H]1C[C@H](N)[C@@H](O[C@H]2O[C@H](CN)[C@@H](O)[C@H](O)[C@H]2O)[C@H](O)[C@H]1O[C@H]1O[C@H](CO)[C@@H](O)[C@H](N)[C@H]1O [AMK, amikacin] | 1 (≈ 1.71 µM) | > 256 | > 256 | – | 1 (≈ 1.71 µM) | 2 (≈ 3.42 µM) | 2 (≈ 3.42 µM) | 2 (≈ 3.42 µM) | 2 (≈ 3.42 µM) | – | – | resistant |
